In patent US5399487A, “6-peptidylamino-1-naphthalenesulfonamides useful as fluorogenic proteolytic enzyme substrates” (Haematologic Technologies, Inc., priority 1993, dated 1995):
Where a SMILES comes first, the peptide text is derived from it. The star is where a group is joined. pNA = O=[N+]([O-])c1ccc(N*)cc1; Tos = Cc1ccc(S(=O)(=O)*)cc1

Tests used:
Assay type in all cases: biochemical
factor IIa = target: T1, factor IIa (Homo sapiens, UniProt P00734); assay: Kinetic constants of substrate hydrolysis, Chromozyme TH vs TosGPR-ANSN (Table A); settings: 22° C., 0.02M TBS pH 7.4, 0.15M NaCl
T1 construct: 0.5 nM human thrombin (IIa)
Experimental: (§1) The 6-amino-1-naphthalenesulfonamide detecting group increased the specificity of the overall kinetic efficiency of substrate hydrolysis by thrombin relative to the rate of hydrolysis of the p-nitroanilide substrate chromozyme TH (American Diagnostics). Commercially available substrate (Chromozyme TH, TosGPR-p-NA) was compared to a substrate of the present invention, Tosgly-pro-arg-ANSN(i-C4 H9) (TosGPR-ANSNH(i-C4 H9)) in an assay performed at 22° C. in 0.02M TBS buffer at pH 7.4, containing 0.15M NaCl.

factor Xa [1] = target: T2, factor Xa (Homo sapiens, UniProt P00742); assay: as above; settings: 22° C., 0.02M TBS pH 7.4, 0.15M NaCl
T2 sequence (P00742 235-488 limits assumed): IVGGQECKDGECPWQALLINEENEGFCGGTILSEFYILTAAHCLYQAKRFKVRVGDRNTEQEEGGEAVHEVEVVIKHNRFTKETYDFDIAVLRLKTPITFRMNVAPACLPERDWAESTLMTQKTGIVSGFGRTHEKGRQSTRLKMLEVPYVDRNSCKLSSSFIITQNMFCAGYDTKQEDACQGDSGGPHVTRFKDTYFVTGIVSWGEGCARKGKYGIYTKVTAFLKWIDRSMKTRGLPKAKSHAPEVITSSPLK
T2 sequence (P00742 41-179 limits assumed): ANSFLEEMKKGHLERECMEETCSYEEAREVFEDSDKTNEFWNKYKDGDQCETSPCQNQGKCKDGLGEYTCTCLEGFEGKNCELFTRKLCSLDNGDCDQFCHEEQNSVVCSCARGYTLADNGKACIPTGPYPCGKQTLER
Experimental: as §1

thrombin (IIa) = target: T3, thrombin (IIa) (Homo sapiens, UniProt P00734); assay: Fluorogenic enzyme assay (Example 5); parameters: key to Kinetic constants, IIa (symbol b): slow substrate hydrolysis, no kinetic constants calculated; settings: for TIME TO 10% HYDROLYSIS (HOURS), IIa: substrate 1 μM
T3 construct: 0.5 nM human thrombin (IIa)
How it was run: (§2)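 Km/kcat by nonlinear least-squares Michaelis-Menten fitting of initial rates. Buffer TBS pH 7.4, 22° C; substrate diluted from 10 mM DMSO stock into TBS; 6-amino-1-naphthalenesulfonamide release read at ex 352/em 470 nm vs standard curve.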

factor Xa [2] = target: T2, factor Xa; assay: Fluorogenic enzyme assay (Example 5); parameters: key to Kinetic constants, Xa (symbol b): slow substrate hydrolysis, no kinetic constants calculated
How it was run: as §2

[3] = target: activated protein C (APC) (Homo sapiens, UniProt P04070); assay: Fluorogenic enzyme assay (Example 5); settings: for TIME TO 10% HYDROLYSIS (HOURS), APC: 10 nM enzyme, substrate 1 μM; for Km / kcat /Km, APC / kcat, APC: Table 9
Chain of activated protein C (APC) (P04070 212-461 limits assumed): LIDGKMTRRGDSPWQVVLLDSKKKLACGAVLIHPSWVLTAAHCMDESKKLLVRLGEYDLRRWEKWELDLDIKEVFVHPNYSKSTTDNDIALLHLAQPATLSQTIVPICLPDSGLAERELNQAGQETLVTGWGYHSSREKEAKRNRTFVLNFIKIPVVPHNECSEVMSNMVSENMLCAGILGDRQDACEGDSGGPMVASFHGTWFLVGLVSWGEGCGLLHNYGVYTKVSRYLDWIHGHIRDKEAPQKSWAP
Chain of activated protein C (APC) (P04070 43-197 limits assumed): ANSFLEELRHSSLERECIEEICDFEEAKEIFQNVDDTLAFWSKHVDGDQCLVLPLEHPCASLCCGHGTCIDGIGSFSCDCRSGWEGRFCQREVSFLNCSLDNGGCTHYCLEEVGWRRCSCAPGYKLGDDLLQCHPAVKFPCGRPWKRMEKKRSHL
How it was run: as §2

plasmin (Plm) = plasmin (Plm) (Homo sapiens, UniProt P00747); assay: Fluorogenic enzyme assay (Example 5); settings: 10 nM enzyme, substrate 1 μM
Chain of plasmin (Plm) (P00747 581-810 limits assumed, species assumed): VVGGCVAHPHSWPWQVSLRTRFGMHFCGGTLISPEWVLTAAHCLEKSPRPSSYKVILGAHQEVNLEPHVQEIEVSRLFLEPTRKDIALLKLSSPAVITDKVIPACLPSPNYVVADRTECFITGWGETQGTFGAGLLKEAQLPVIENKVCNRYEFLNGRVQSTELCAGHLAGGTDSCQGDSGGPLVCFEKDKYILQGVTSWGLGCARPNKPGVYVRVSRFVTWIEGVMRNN
Chain of plasmin (Plm) (P00747 97-580 limits assumed, species assumed): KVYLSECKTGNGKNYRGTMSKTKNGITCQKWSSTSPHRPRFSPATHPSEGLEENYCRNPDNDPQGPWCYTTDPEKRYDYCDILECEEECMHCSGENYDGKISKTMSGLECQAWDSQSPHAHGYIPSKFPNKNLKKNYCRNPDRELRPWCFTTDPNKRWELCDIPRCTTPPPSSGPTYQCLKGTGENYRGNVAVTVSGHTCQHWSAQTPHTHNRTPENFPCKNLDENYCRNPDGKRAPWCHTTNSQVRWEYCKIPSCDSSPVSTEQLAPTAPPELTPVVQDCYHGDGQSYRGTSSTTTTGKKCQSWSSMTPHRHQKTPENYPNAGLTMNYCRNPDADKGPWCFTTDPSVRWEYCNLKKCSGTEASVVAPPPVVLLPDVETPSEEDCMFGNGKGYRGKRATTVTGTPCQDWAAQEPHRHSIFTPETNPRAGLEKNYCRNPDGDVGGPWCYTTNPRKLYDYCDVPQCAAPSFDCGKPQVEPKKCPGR
How it was run: as §2

[4] = target: tissue plasminogen activator (t-PA) (Homo sapiens, UniProt P00750); assay: Fluorogenic enzyme assay (Example 5); settings: 100 nM enzyme, substrate 1 μM
Chain of tissue plasminogen activator (t-PA) (P00750 36-562, species assumed): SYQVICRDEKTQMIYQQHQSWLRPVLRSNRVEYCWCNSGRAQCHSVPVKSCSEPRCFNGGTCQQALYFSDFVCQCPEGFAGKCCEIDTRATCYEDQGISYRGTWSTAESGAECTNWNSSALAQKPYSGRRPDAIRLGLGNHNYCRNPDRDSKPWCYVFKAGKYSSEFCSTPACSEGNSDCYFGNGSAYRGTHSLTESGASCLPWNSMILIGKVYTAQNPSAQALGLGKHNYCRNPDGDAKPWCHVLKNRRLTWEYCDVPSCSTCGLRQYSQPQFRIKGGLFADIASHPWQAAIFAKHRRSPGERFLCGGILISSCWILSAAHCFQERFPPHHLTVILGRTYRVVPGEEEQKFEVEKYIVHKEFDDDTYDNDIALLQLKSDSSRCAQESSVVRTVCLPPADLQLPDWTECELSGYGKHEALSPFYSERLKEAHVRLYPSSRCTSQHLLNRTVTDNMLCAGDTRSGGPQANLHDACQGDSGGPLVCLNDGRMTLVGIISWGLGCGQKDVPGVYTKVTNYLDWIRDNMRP
How it was run: as §2

urokinase (u-PA) = urokinase (u-PA) (Homo sapiens, UniProt P00749); assay: Fluorogenic enzyme assay (Example 5); settings: 100 nM enzyme, substrate 1 μM
factor VIIa = target: T4, factor VIIa (Homo sapiens, UniProt P08709); assay: Fluorogenic enzyme assay, relative hydrolysis rates (Table 8); settings: at 100 hours; 10 nM enzyme, substrate 1 μM
T4 construct: directly measure the enzymatic activity of factor VIIa in the presence and absence of tissue factor and phospholipid
T4 sequence (P08709 213-466 limits assumed): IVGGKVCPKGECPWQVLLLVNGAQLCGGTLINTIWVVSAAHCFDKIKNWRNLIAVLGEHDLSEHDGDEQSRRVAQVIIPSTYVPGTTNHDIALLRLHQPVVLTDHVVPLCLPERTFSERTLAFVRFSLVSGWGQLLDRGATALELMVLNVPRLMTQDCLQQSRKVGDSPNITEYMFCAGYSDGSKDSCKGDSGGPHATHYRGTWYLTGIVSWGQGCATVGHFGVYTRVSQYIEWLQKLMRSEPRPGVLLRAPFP
T4 sequence (P08709 61-212 limits assumed): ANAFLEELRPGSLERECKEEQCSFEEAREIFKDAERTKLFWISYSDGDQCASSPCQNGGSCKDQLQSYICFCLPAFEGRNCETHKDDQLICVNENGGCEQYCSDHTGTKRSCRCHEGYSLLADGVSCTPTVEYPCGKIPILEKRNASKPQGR
Experimental: (§3) Enzyme assays (except factor VIIa assays, see below) were conducted in 20 mM Tris, 150 mM NaCl, pH 7.4 (TBS) at room temperature (22° C.). The final volume for all reaction mixtures was 2.0 ml. Fluorogenic substrates were dissolved in DMSO to a stock concentration of 10 mM. The 10 mM stock solution was diluted in TBS to the final working concentration prior to all assays. Enzyme was added to mixtures containing buffer components and substrate and the initial rate of substrate hydrolysis was measured as the change in fluorescent intensity over time, corresponding to the generation of the particular 6-amino-1-naphthalenesulfonamide fluorophore from the provided substrate. Quantitation of substrate hydrolysis was accomplished by establishing a standard curve from the appropriate fluorescent moiety. Fluorescence was monitored (continuously or discontinuously) using a Perkin Elmer fluorescence spectrophotometer, model MPF-44A, equipped with a standard chart recorder. The fluorophore was detected using monochrometers set at an excitation wavelength of 352 nm and an emission wavelength of 470 nm. Light scattering artifacts were minimized using a 399 nm cut off filter in the emission light beam.
Factor VII assays were conducted in 20 mM HEPES, 150 mM NaCl, 5 mM CaCl2, pH 7.4 (HBS) at 37° C. The final volume for all reactions was 1.6 ml. 6-(Mes-D-Leu-Gly-Arg)amino-1-(N,N-diethyl)naphthalenesulfonamide was dissolved in DMSO to a stock concentration of 10 mM. This 10 mM stock solution of was diluted in HBS to final working concentration prior to all assays. For reactions involving tissue factor (TF) and phospholipid vesicles, recombinant human tissue factor was solubilized in either 0.04% n-dodecyl octaethylene glycol (C12 E8) or 0.8% octyl glucoside. The TF/n-dodecyl octaethylene glycol was then relipidated into PCPS or PC vesicles by a 30 minute incubation step as described by Lawson & Mann, J. Biol. Chem. 266: 11317-11327 (1991). TF/octyl glucoside was relipidated into PC or PCPS vesicles by a thirty minute incubation step followed by exhaustive dialysis. The final concentration of tissue factor used in the studies described here ranged from 2 to 50 nM depending on the nature of the experiment.
Fifteen minutes prior to the start of all reactions factor VIIa was added to the reaction system. This incubation period was followed by the addition of substrate (1 μM to 400 μM) to the mixture to start the reaction. In experiments designed to determine kinetic constants of substrate hydrolysis, 50 nM rVIIa was used when no tissue factor was present in the reaction system, while 0.5 nM rVIIa was used when tissue factor was present in the reaction system. The rate of substrate hydrolysis was measured by change in fluorescence over time, which corresponded with the generation of the 6-amino-1-(N,N-diethyl)naphthalenesulfonamide from the provided substrate. The kinetic constants of 6-(Mes-D-Leu-Gly-Arg)amino-1-(N,N-diethyl)naphthalenesulfonamide hydrolysis as a function of factor VIIa/tissue factor complex assembly are shown in Table 10.

factor IXa = factor IXa (Homo sapiens, UniProt P00740); assay: Fluorogenic enzyme assay (Example 5); parameters: key to Kinetic constants, IXa (symbol b): slow substrate hydrolysis, no kinetic constants calculated
Chain of factor IXa (P00740 227-461 limits assumed): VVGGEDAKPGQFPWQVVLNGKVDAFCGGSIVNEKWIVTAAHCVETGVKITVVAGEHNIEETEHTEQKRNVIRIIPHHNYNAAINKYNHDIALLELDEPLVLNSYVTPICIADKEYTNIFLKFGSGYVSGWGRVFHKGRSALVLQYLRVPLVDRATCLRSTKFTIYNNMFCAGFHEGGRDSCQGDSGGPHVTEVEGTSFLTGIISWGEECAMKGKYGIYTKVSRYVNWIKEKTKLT
Chain of factor IXa (P00740 47-191 limits assumed): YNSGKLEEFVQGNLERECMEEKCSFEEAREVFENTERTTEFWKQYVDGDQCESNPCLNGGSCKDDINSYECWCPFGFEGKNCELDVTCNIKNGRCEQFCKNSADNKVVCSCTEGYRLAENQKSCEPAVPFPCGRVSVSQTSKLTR
Experimental: as §3
The kinetic constants of substrate hydrolysis were determined using the non-linear least squares regression analysis program ENZFITTER (Cambridge, UK). This program was used to iteratively fit initial rates of substrate hydrolysis to the Michaelis-Menten equation and the kinetic constants of substrate hydrolysis (Km) and (kcat) were calculated.

| Kcat (factor IIa) | Km (factor IIa) [µM] | Kcat (factor Xa [1]) [s⁻¹] | Km (factor Xa [1]) [µM] | TIME TO 10% HYDROLYSIS (HOURS), IIa (thrombin (IIa); 1 nM enzyme (footnote c)) [h] | Km (thrombin (IIa); Table 9) [µM] | kcat, IIa (thrombin (IIa); Table 9) [s⁻¹] | TIME TO 10% HYDROLYSIS (HOURS), Xa (factor Xa [2]; 10 nM enzyme, substrate 1 μM) [h] | Km (factor Xa [2]; Table 9) [µM] | kcat /Km, Xa (factor Xa [2]; Table 9) [M⁻¹ s⁻¹] | kcat, Xa (factor Xa [2]; Table 9) [s⁻¹] | TIME TO 10% HYDROLYSIS (HOURS), APC [3] [h] | Km [3] [µM] | kcat /Km, APC [3] [M⁻¹ s⁻¹] | kcat, APC [3] [s⁻¹] | TIME TO 10% HYDROLYSIS (HOURS), Plm (plasmin (Plm)) [h] | TIME TO 10% HYDROLYSIS (HOURS), t-PA [4] [h] | TIME TO 10% HYDROLYSIS (HOURS), u-PA (urokinase (u-PA)) [h] | TIME TO 10% HYDROLYSIS (HOURS), IXa (factor IXa; 100 nM enzyme, substrate 1 μM) [h] | Compound | hydrolysis, VIIa (symbol d) (factor VIIa) | further results |
| --- | --- | --- | --- | --- | --- | --- | --- | --- | --- | --- | --- | --- | --- | --- | --- | --- | --- | --- | --- | --- | --- |
| 14.1 | 13.8 | 244 | 364 |  |  |  |  |  |  |  |  |  |  |  |  |  |  |  | Cc1ccc(S(=O)(=O)NCC(=O)N2CCC[C@H]2C(=O)N[C@@H](CCCNC(=N)N)C(=O)Nc2ccc([N+](=O)[O-])cc2)cc1 [Chromozyme TH, reference compound] (Tos-Gly-Pro-Arg-pNA) |  |  |
| 45.6 | 10.5 | 11.2 | 132 | 0.01 | 11 | 52.6 | 0.05 | 35.3 | 6800 | 2.4 | 0.02 | 800 | 150000 | 120 | 0.25 | 2 | 0.01 | 42 | Cc1ccc(S(=O)(=O)NCC(=O)N2CCC[C@H]2C(=O)N[C@@H](CCCNC(=N)N)C(=O)Nc2ccc3c(S(=O)(=O)NCC(C)C)cccc3c2)cc1 [TosGPR-ANSNH(i-C4 H9)] | d (hydrolysis at 100 hours was less than 10%.) | Km (factor IXa; Table 9): 123 µM; kcat, IXa (factor IXa; Table 9): 0.3 s⁻¹; kcat/Km, IXa (factor IXa; Table 9): 2400 M⁻¹ s⁻¹ |
|  |  |  |  | 0.01 | 4.2 | 16.1 | 0.02 | 26.3 | 133000 | 3.5 | 0.5 | 246 | 28900 | 7.1 | 0.08 | 1 | 1 | 7 | CC(C)C[C@@H](NC(=O)OCc1ccccc1)C(=O)N1CCC[C@H]1C(=O)N[C@@H](CCCNC(=N)N)C(=O)Nc1ccc2c(S(=O)(=O)N3CCCCC3)cccc2c1 [ZD-LPR-ANSN(CH2)5] | d (hydrolysis at 100 hours was less than 10%.) | Km (factor IXa; Table 9): 141 µM; kcat, IXa (factor IXa; Table 9): 0.39 s⁻¹; kcat/Km, IXa (factor IXa; Table 9): 2750 M⁻¹ s⁻¹ |
|  |  |  |  |  |  |  |  |  |  |  | 0.6 | 320 | 19300 | 6.2 | 47 |  |  |  | N=C(N)NCCC[C@H](NC(=O)CNC(=O)CNC(=O)OCc1ccccc1)C(=O)N[C@@H](CCCNC(=N)N)C(=O)Nc1ccc2c(S(=O)(=O)NC3CCCCC3)cccc2c1 [ZGGRR-ANSNH(cyclo-C6 H11)] | d (hydrolysis at 100 hours was less than 10%.) | TIME TO 10% HYDROLYSIS (HOURS), IIa (thrombin (IIa); 10 nM enzyme): 93 h; Kinetic constants, IIa (symbol b) (thrombin (IIa); Table 9): b; Kinetic constants, Xa (symbol b) (factor Xa [2]; Table 9): b; hydrolysis, Xa (symbol d) (factor Xa [2]; at 100 hours, 10 nM enzyme, substrate 1 μM): d (hydrolysis at 100 hours was less than 10%.); hydrolysis, t-PA (symbol d) ([4]; at 100 hours): d (hydrolysis at 100 hours was less than 10%.); hydrolysis, u-PA (symbol d) (urokinase (u-PA); at 100 hours): d (hydrolysis at 100 hours was less than 10%.); Kinetic constants, IXa (symbol b) (factor IXa; Table 9): b; hydrolysis, IXa (symbol d) (factor IXa; at 100 hours, 100 nM enzyme, substrate 1 μM): d (hydrolysis at 100 hours was less than 10%.) |
